{"source": "patent US20110124701A1", "about": "“USE OF HDAC INHIBITORS FOR THE TREATMENT OF LYMPHOMAS” (NOVARTIS AG, priority 2006, published 2011)", "key": {"HuT78 CTCL cell line": {"tested_on": "HuT78 CTCL cell line", "experiment": "Monolayer growth inhibition assay (MTT/MTS), HuT78", "format": "cell-based", "experimental": "(§1) The antibiotics penicillin 100 units/mL) and streptomycin (100 μg/mL) were added to prevent bacterial contamination and maintained at 37° C. and 5% CO2 environment in a sterile incubator.\n(§2) The MTT is a colorimetric assay to determine the cell proliferation rate. The yellow tetrazolium MTT (3-(4,5-dimethylthiazolyl-2)-2,5-diphenyltetrazolium bromide) is reduced by metabolically active cells, in part by the action of dehydrogenase enzymes, to generate reducing equivalents, such as NADH and NADPH. The resulting intracellular purple formazan can be solubilized and quantified by spectrophotometric means. The signals produced is directly proportional to the cell numbers. Describing the MTT assay in detail, experiments were done using 6-point or 9-point drug titrations in multi-well tissue culture dishes, with outer rows left empty. Cells were suspended in complete media at densities of between 10^3 and 10^4 cell/mL, respectively, and added per well. The appropriate medium (200 μL) was then added. Twenty-four hours later, 10 μL of MTS solution, were added to one plates to determine the activity at the time of compound addition (T0). […] The T0 plate served as a reference for initial activity at the beginning of the experiment.\n(§3) Compound addition began 24 hours after seeding, the same time as the T0 determination. […] Each of the six dilutions were added in triplicate and complete medium was added to the empty outer rows without cells. […] The plates were incubated at 37° C. for 72 hours from seeding. The MTS solution was added (as for the T0 plate) and read four hours later. In order to analyze the data, the average value of media alone (background) was subtracted from each experimental well and the triplicate values were averaged for each compound dilution. The following formulas were used to calculate percent growth.\n(§4) If X>T0, % Growth=100×((X−T0)/(GC−T0))\n(§5) If X<T0, % Growth=100×(X−T0)/T0)\n(§6) T0=average value of T0 minus background GC=average value of untreated cells (in triplicate) minus background X=average value of compound treated cells (in triplicate) minus background […]"}, "HH CTCL cell line": {"tested_on": "HH CTCL cell line", "experiment": "Monolayer growth inhibition assay (MTT/MTS), HH", "format": "cell-based", "experimental": "as §1, §2, §3, §4, §5, §6"}, "MJ CTCL cell line": {"tested_on": "MJ CTCL cell line", "experiment": "Monolayer growth inhibition assay (MTT/MTS), MJ", "format": "cell-based, human", "experimental": "(§7) Cell lines derived from human CTCL (mycosis fungoides), HUT78, HUT102, HH and MJ were treated with Compound III (LBH589) to assess their sensitivity to the drug. Cells were generally maintained in artificial media, such as Dubelco Modified Eagle Medium (DMEM) or RPMI and supplemented with various levels up to 15% fetal bovine serum. The antibiotics penicillin 100 units/mL) and streptomycin (100 μg/mL) were added to prevent bacterial contamination and maintained at 37° C. and 5% CO2 environment in a sterile incubator.\n(§8) The MTT is a colorimetric assay to determine the cell proliferation rate. The yellow tetrazolium MTT (3-(4,5-dimethylthiazolyl-2)-2,5-diphenyltetrazolium bromide) is reduced by metabolically active cells, in part by the action of dehydrogenase enzymes, to generate reducing equivalents, such as NADH and NADPH. The resulting intracellular purple formazan can be solubilized and quantified by spectrophotometric means. The signals produced is directly proportional to the cell numbers. Describing the MTT assay in detail, experiments were done using 6-point or 9-point drug titrations in multi-well tissue culture dishes, with outer rows left empty. Cells were suspended in complete media at densities of between 10^3 and 10^4 cell/mL, respectively, and added per well. The appropriate medium (200 μL) was then added. Twenty-four hours later, 10 μL of MTS solution, were added to one plates to determine the activity at the time of compound addition (T0). This plate was incubated at 37° C. for 4 hours and the optical density was measured on a Molecular Devices Thermomax at 490 nm using the Softmax program. The T0 plate served as a reference for initial activity at the beginning of the experiment.\n(§9) Compound addition began 24 hours after seeding, the same time as the T0 determination. […] Each of the six dilutions were added in triplicate and complete medium was added to the empty outer rows without cells. The compounds were added to the plates singly or in combination with Compound III (LBH589). The plates were incubated at 37° C. for 72 hours from seeding. The MTS solution was added (as for the T0 plate) and read four hours later. In order to analyze the data, the average value of media alone (background) was subtracted from each experimental well and the triplicate values were averaged for each compound dilution. The following formulas were used to calculate percent growth.\nas §4, §5, §6"}, "HuT102 CTCL cell line": {"tested_on": "HuT102 CTCL cell line", "experiment": "Monolayer growth inhibition assay (MTT/MTS), HuT102", "format": "cell-based, human", "experimental": "as §7, §8, §9, §4, §5, §6"}, "[1]": {"tested_on": "HH CTCL mouse tumor xenografts", "experiment": "HH CTCL tumor xenograft in mice", "format": "in vivo", "conditions": "2 weeks", "experimental": "Additionally, Compound III (LBH589) induced the regression of the HH CTCL mouse tumor xenografts in vivo. Mice were implanted with the HH CTCL cell lines and after tumors have grown to 150 mm^3, the mice were separated into four groups each containing eight mice. The groups of mice were dosed intravenously with vehicle, 5 mg/kg, 10 mg/kg, or 15 mg/kg daily."}, "advanced-stage CTCL": {"tested_on": "advanced-stage CTCL", "experiment": "Phase I study in patients with advanced-stage CTCL", "format": "in vivo, human", "experimental": "Adult patients with histologically-confirmed, advanced solid tumors or non-Hodgkin's lymphoma including CTCL whose disease has progressed despite standard therapy or for whom no standard therapy exists, will be enrolled onto arms 1-3.\nPatients with advanced-stage CTCL were entered into a Phase I study. All patients had progressed following prior systemic therapy. Patients were entered into the DLT, […], dose level 30 mg M,W,F cohort (n=1) or the subsequent MTD, maximum tolerated dose, dose level 20 mg M,W,F weekly (n=8). Compound (III) was continued until disease progression or unacceptable toxicity. The first three patients had 3 mm punch biopsies from CTCL-involved skin lesions performed at 0, 4, 8 and 24 hours after administration, which were subjected to gene expression profiling. Microarray analysis was performed using the Affymetrix U133 plus 2.0 GeneChip that has 47,000 probesets and interrogates 38,500 genes."}, "[2]": {"conditions": "of 9 CTCL patients evaluable for response, 20 or 30 mg M,W,F"}}}
{"smiles": "Cc1[nH]c2ccccc2c1CCNCc1ccc(/C=C/C(=O)NO)cc1", "note": "[Compound III, N-hydroxy-3-[4-[[[2-(2-methyl-1H-indol-3-yl)-ethyl]-amino]methyl]phenyl]-2E-2-propenamide]", "values": [{"measurement": "sensitivity (IC50) in words", "setting": "HuT78 CTCL cell line; HUT78 cells", "value": "extreme subnanomolar sensitivity"}, {"measurement": "IC50", "setting": "HuT78 CTCL cell line; Homo sapiens, HuT78, 72 h, read-out: IC50 (concentration required to inhibit cell growth by 50%)", "value": 0.2, "unit": "nM"}, {"measurement": "LD50 (concentration required to reduce cell number to 50% of the original inoculum)", "setting": "HuT78 CTCL cell line; HuT78 cells, 72 hours", "value": 0.003, "unit": "µM"}, {"measurement": "sensitivity (IC50) in words", "setting": "HH CTCL cell line; HH cells", "value": "extreme subnanomolar sensitivity"}, {"measurement": "LD50 (concentration required to reduce cell number to 50% of the original inoculum)", "setting": "HH CTCL cell line; HH cells, 72 hours", "value": 0.0025, "unit": "µM"}, {"measurement": "IC50", "setting": "HH CTCL cell line; Homo sapiens, HH, 72 h, read-out: IC50 (concentration required to inhibit cell growth by 50%)", "value": 0.7, "unit": "nM"}, {"measurement": "IC50", "setting": "MJ CTCL cell line; Homo sapiens, 72 h, read-out: IC50 (concentration required to inhibit cell growth by 50%)", "value": 0.3, "unit": "nM"}, {"measurement": "sensitivity (IC50) in words", "setting": "MJ CTCL cell line; MJ cells", "value": "extreme subnanomolar sensitivity"}, {"measurement": "LD50 (concentration required to reduce cell number to 50% of the original inoculum)", "setting": "MJ CTCL cell line; MJ cells, 72 hours", "value": ">10", "unit": "µM"}, {"measurement": "sensitivity to induced cell death in words", "setting": "MJ CTCL cell line; MJ cells, HTLV infection", "value": "insensitive"}, {"measurement": "sensitivity (IC50) in words", "setting": "HuT102 CTCL cell line; HUT102 cells", "value": "extreme subnanomolar sensitivity"}, {"measurement": "sensitivity to induced cell death in words", "setting": "HuT102 CTCL cell line; HUT102 cells, HTLV infection", "value": "insensitive"}, {"measurement": "IC50", "setting": "HuT102 CTCL cell line; Homo sapiens, HuT-102, 72 h, read-out: IC50 (concentration required to inhibit cell growth by 50%)", "value": 0.4, "unit": "nM"}, {"measurement": "LD50 (concentration required to reduce cell number to 50% of the original inoculum)", "setting": "HuT102 CTCL cell line; HuT102 cells, 72 hours", "value": ">10", "unit": "µM"}, {"measurement": "effect on tumor growth", "setting": "[1]; 5 mg/kg daily iv", "value": "tumor growth inhibition"}, {"measurement": "effect on tumor growth", "setting": "[1]; 10 mg/kg daily iv", "value": "almost complete tumor regression"}, {"measurement": "effect on tumor growth", "setting": "[1]; 15 mg/kg daily iv", "value": "almost complete tumor regression"}, {"measurement": "MTD, maximum tolerated dose, dose level", "setting": "advanced-stage CTCL; M,W,F weekly, CTCL patients", "value": 20, "unit": "mg"}, {"measurement": "time to progression of a responding patient with CR", "setting": "advanced-stage CTCL; discontinued after 10 doses due to Grade III diarrhea", "value": 8, "unit": "m"}, {"measurement": "DLT dose level", "setting": "advanced-stage CTCL; human, in vivo", "value": 30, "unit": "mg"}, {"measurement": "patients achieving stable disease (SD) with ongoing improvement", "setting": "advanced-stage CTCL; [2]", "value": 1, "unit": "patients"}, {"measurement": "patients attaining a complete response (CR)", "setting": "advanced-stage CTCL; [2]", "value": 2, "unit": "patients"}, {"measurement": "patients attaining a partial response (PR)", "setting": "advanced-stage CTCL; [2]", "value": 2, "unit": "patients"}, {"measurement": "patients progressed on treatment (PD)", "setting": "advanced-stage CTCL; [2]", "value": 4, "unit": "patients"}]}
